Data published in patent publication US12006294B2, “Therapeutic compounds” (REGENTS OF THE UNIVERSITY OF MINNESOTA, priority 2017, dated 2024).
Structures can show the parent of a compound that is named as a salt. Where two headings read alike, the source gives them in different places.

System: Hela Cells
Assay: Cellular ER stress model (tunicamycin, WST-8 cell viability)
Conditions: Homo sapiens, HeLa, 48 h
[1] = read-out: % Cell Survival Cmpd(2.5 μM) + Tuni, Hela cells, compound 2.5 μM + tunicamycin, WST-8 viability 48 hours after tunicamycin treatment
[2] = read-out: Compounds ERS (vs Tn), ERS activity vs Tuni = % cell survival (compound)/% cell survival (tunicamycin), compound 2.5 μM

| SMILES | viability at 2.5 µM [1] | viability at 2.5 µM [2] |
| --- | --- | --- |
| Cc1cc(=O)nc(N/N=C/c2c(F)cccc2Cl)[nH]1 [JM2-203-2, (E)-2-(2-(2-chloro-6-fluorobenzylidene)hydrazinyl)-6-methylpyrimidin-4(1H)-one] | 19.7% | 103% |
| CCc1cccc(CC)c1/C=N/NC(=N)N [JM2-233-2] | 31.8% | 121% |
| Clc1cccc(Cl)c1/C=N/NC1=NCCCN1 [JM2-255-2, (E)-2-(2-(2,6-dichlorobenzylidene)hydrazinyl)-1,4,5,6-tetrahydropyrimidine hydrochloride] | 63.8% | 201% |
| Cc1cccc(Cl)c1/C=N/NC1=NCCCN1 [JM2-265-2, (E)-2-(2-(2-chloro-6-methylbenzylidene)hydrazinyl)-1,4,5,6-tetrahydropyrimidine hydrochloride] | 47.2% | 179% |
| Clc1cccc(Cl)c1CC1=NCCCN1 [JM2-271-2, 2-(2,6-dichlorobenzyl)-1,4,5,6-tetrahydropyrimidine] | 32.3% | 123% |
| N=C(N)NC(=O)Cc1c(Cl)cccc1[N+](=O)[O-] [JM2-275-2, N-carbamimidoyl-2-(2-chloro-6-nitrophenyl)acetamide hydrochloride] | 29.8% | 101% |
| N=C(N)N/N=C/c1cccs1 [JM2-279-2, (E)-2-(thiophen-2-ylmethylene)hydrazine-1-carboximidamide] | 32.1% | 122% |
| N=C(N)NC(=O)Cc1c(Cl)cccc1Cl [JM2-287-2, N-carbamimidoyl-2-(2,6-dichlorophenyl)acetamide hydrochloride] | 33% | 111% |
| CN(C)C(=N)N/N=C/c1c(Cl)cccc1Cl [JM2-289-2, (E)-2-(2,6-dichlorobenzylidene)-N,N-dimethylhydrazine-1-carboximidamide hydroiodide] | 33.8% | 128% |
| N=C(N)N/N=C/c1cc(Cl)ccc1Cl [JM3-11-2, (E)-2-(2,5-dichlorobenzylidene)hydrazine-1-carboximidamide acetate] | 40.2% | 153% |
| N=C(N)N/N=C/c1ccccc1[N+](=O)[O-] [JM3-13-2, (E)-2-(2-nitrobenzylidene)hydrazine-1-carboximidamide acetate] | 27.4% | 104% |
| N=C(N)N/N=C/c1ccccc1O [JM3-17-2, (E)-2-(2-hydroxybenzylidene)hydrazine-1-carboximidamide acetate] | 28.7% | 109% |
| N=C(N)NCC(O)c1c(Cl)cccc1Cl (centres unmarked) [JM3-27-2, 1-(2-(2,6-dichlorophenyl)-2-hydroxyethyl)guanidine] | 28.6% | 109% |
| N=C(N)N/N=C/c1c(Cl)ccnc1Cl [JM3-29-2, (E)-2-((2,4-dichloropyridin-3-yl)methylene)hydrazine-1-carboximidamide acetate] | 32.2% | 122% |
| N=C(N)N/N=C/c1ccc(Br)cc1Cl [JM3-57-2, (E)-2-(4-bromo-2-chlorobenzylidene)hydrazine-1-carboximidamide acetate] | 28.1% | 107% |
| N=C(N)N/N=C/c1ccc(-c2ccccc2)cc1Cl [JM3-63-2, (E)-2-((3-chloro-[1,1′-biphenyl]-4-yl)methylene)hydrazine-1-carboximidamide acetate] | 15.9% | 60% |
| N=C(N)N/N=C/c1c(Cl)cc(-c2ccccc2)cc1Cl [JM3-67-2, (E)-2-((3,5-dichloro-[1,1′-biphenyl]-4-yl)methylene)hydrazine-1-carboximidamide] | 23.3% | 102% |
| CCc1cccc(Cl)c1/C=N/NC(=N)N [JM3-81-2, (E)-2-(2-chloro-6-ethylbenzylidene)hydrazine-1-carboximidamide acetate] | 29.9% | 130% |
| CC(C)c1cccc(Cl)c1/C=N/NC(=N)N [JM3-89-2, (E)-2-(2-chloro-6-isopropylbenzylidene)hydrazine-1-carboximidamide acetate] | 22% | 96% |
| CC(C)c1cccc(C(C)C)c1/C=N/NC(=N)N [JM3-99-2, (E)-2-(2,6-diisopropylbenzylidene)hydrazine-1-carboximidamide] | 20.9% | 91% |
| Clc1cccc(Cl)c1Cc1ncc[nH]1 [JM3-131-2, 2-(2,6-dichlorobenzyl)-1H-imidazole] | 22.8% | 100% |
| N=C(N)N/N=C/c1c(C(F)(F)F)cccc1C(F)(F)F [JM3-141-2, (E)-2-(2,6-bis(trifluoromethyl)benzylidene)hydrazine-1-carboximidamide acetate] | 19.6% | 86% |

| SMILES | viability at 2.5 µM [1] | viability at 2.5 µM [2] |
| --- | --- | --- |
| Clc1cccc(/C=N/NC2=NCCN2)c1Cl [JM3-149-2, (E)-2-(2-(2,3-dichlorobenzylidene)hydrazinyl)-4,5-dihydro-1H-imidazole hydrochloride] | 29.1% | 125% |
| Clc1ccc(Cl)c(/C=N/NC2=NCCN2)c1Cl [JM3-151-2, (E)-2-(2-(2,3,6-trichlorobenzylidene)hydrazinyl)-4,5-dihydro-1H-imidazole hydrochloride] | 24.2% | 104% |
| Clc1cccc(/C=N/NC2=NCCCN2)c1Cl [JM3-153-2, (E)-2-(2-(2,3-dichlorobenzylidene)hydrazinyl)-1,4,5,6-tetrahydropyrimidine hydrochloride] | 36% | 155% |
| Clc1ccc(Cl)c(/C=N/NC2=NCCCN2)c1Cl [JM3-155-2, (E)-2-(2-(2,3,6-trichlorobenzylidene)hydrazinyl)-1,4,5,6-tetrahydropyrimidine hydrochloride] | 31.2% | 135% |
| CCCCNC(=N)N/N=C/c1c(Cl)cccc1Cl [JM3-161-2, (E)-N-butyl-2-(2,6-dichlorobenzylidene)hydrazine-1-carboximidamide hydroiodide] | 14.7% | 63% |
| Clc1cccc(CC2=NCCN2)c1Cl [JM3-179-2, 2-(2,3-dichlorobenzyl)-4,5-dihydro-1H-imidazole] | 20.4% | 88% |
| Clc1cccc(CC2=NCCCN2)c1Cl [JM3-181-2, 2-(2,3-dichlorobenzyl)-1,4,5,6-tetrahydropyrimidine] | 19.6% | 102% |
| N=C(N)N/N=C/c1ccccc1I [JM3-183-2, (E)-2-(2-iodobenzylidene)hydrazine-1-carboximidamide acetate] | 24.2% | 104% |
| Cc1[nH]c(N/N=C/c2c(Cl)cccc2Cl)nc(=O)c1C [JM3-191-2, (E)-2-(2-(2,6-dichlorobenzylidene)hydrazinyl)-5,6-dimethylpyrimidin-4(1H)-one] | 40.6% | 175% |
| Cc1[nH]c(N/N=C/c2cccc(Cl)c2Cl)nc(=O)c1C [JM3-195-2, (E)-2-(2-(2,3-dichlorobenzylidene)hydrazinyl)-5,6-dimethylpyrimidin-4(1H)-one] | 29.7% | 128% |
| Cc1cc(=O)nc(N/N=C/c2c(Cl)cccc2Cl)[nH]1 [JM3-197-2, (E)-2-(2-(2,6-dichlorobenzylidene)hydrazinyl)-6-methylpyrimidin-4(1H)-one] | 20.4% | 106% |
| Cc1cc(=O)nc(N/N=C/c2cccc(Cl)c2Cl)[nH]1 [JM3-199-2, (E)-2-(2-(2,3-dichlorobenzylidene)hydrazinyl)-6-methylpyrimidin-4(1H)-one] | 22.9% | 120% |
| Cc1cc(=O)nc(N/N=C/c2c(Cl)ccc(Cl)c2Cl)[nH]1 [JM3-201-2, (E)-6-methyl-2-(2-(2,3,6-trichlorobenzylidene)hydrazinyl)pyrimidin-4(1H)-one] | 20% | 104% |
| Cc1[nH]c(N/N=C/c2c(Cl)ccc(Cl)c2Cl)nc(=O)c1C [JM3-205-2, (E)-5,6-dimethyl-2-(2-(2,3,6-trichlorobenzylidene)hydrazinyl)pyrimidin-4(1H)-one] | 20.7% | 108% |
| Cc1[nH]c(N/N=C/c2c(F)cccc2Cl)nc(=O)c1C [JM3-207-2, (E)-2-(2-(2-chloro-6-fluorobenzylidene)hydrazinyl)-5,6-dimethylpyrimidin-4(1H)-one] | 23.1% | 120% |
| Cc1[nH]c(N/N=C/c2ccc(Cl)c(Cl)c2)nc(=O)c1C [JM3-209-2, (E)-2-(2-(3,4-dichlorobenzylidene)hydrazinyl)-5,6-dimethylpyrimidin-4(1H)-one] | 21.6% | 113% |
| Cc1cc(=O)nc(N/N=C/c2ccc(Cl)c(Cl)c2)[nH]1 [JM3-211-2, (E)-2-(2-(3,4-dichlorobenzylidene)hydrazinyl)-6-methylpyrimidin-4(1H)-one] | 20.2% | 105% |
| Cc1[nH]c(N/N=C/c2ccccc2Cl)nc(=O)c1C [JM3-213-2, (E)-2-(2-(2-chlorobenzylidene)hydrazinyl)-5,6-dimethylpyrimidin-4(1H)-one] | 22.8% | 119% |
| Cc1cc(=O)nc(N/N=C/c2ccccc2Cl)[nH]1 [JM3-215-3, (E)-2-(2-(2-chlorobenzylidene)hydrazinyl)-6-methylpyrimidin-4(1H)-one] | 21% | 110% |
| NC(=O)N/N=C/c1ccccc1Br [JM3-219-4, (E)-2-(2-bromobenzylidene)hydrazine-1-carboxamide hydrochloride] | 20% | 104% |
| NC(=O)N/N=C/c1ccccc1F [JM3-221-2, (E)-2-(2-fluorobenzylidene)hydrazine-1-carboxamide hydrochloride] | 28.9% | 122% |
